Where two headings read alike, the source gives them in different places. Where a SMILES comes first, the peptide text is derived from it. [ ]: non-standard residue; d: D form. Hyp = O=C(O)[C@@H]1C[C@@H](O)CN1
How the values were obtained:
[1] = system: cerebellar granule cells (CGC); test: Evaluation Test 2: viability of primary-cultured CGC by MTT assay (differentiation promoting action); conditions: for Viability (%): KCl 15 mM, MTT day 7, percent of control sample with KCl 25 mM
Protocol: (§1) 15 to 25-week-old male and female Wistar rats were provided by purchase from CREA Japan, Inc. Thereafter, the rats were reared under the following conditions: the temperature was 23±2° C., the relative humidity was 55±10%, the lighting cycle was 12 hours, the light period started at 7:00 and ended at 19:00, and the rats were fed with a solid feed (“CE-2” (trade name) manufactured by CREA Japan, Inc) and allowed to freely access drinking water. Under the same conditions as described above, the rats were mated to obtain 7-day-old rats. Further, 3 to 8-day-old Wistar rats were provided by purchase from CREA Japan, Inc.
(§2) The Wistar rats were reared to the age of 7 to 9 days under the above-described conditions, and cerebella were then excised from these rats, and dispersed by the below-described method using the dispersion solutions shown in Table 4 (liquids I to V). In this way, dispersions containing granule cells and other cerebral nerve cells (hereinafter, these cells are also referred to collectively as “cerebellar granule cells (CGC)”) from the cerebella. The cerebellar granule cells (CGC) are cerebral nerve cells. Thereafter, the CGC contained in the dispersions was cultured. […] The method for preparing the cerebellar granule cells (CGC) is as follows.
(§3) First, ten of the 7 to 9-day-old rats were decapitated, and cerebella were excised in the clean bench, and then formed into minced paste with a razor after removal of unnecessary tissues, blood vessels, chorionic membranes and the like. Liquid I was added to the paste to give a suspension, and the suspension was centrifuged at 1,000 rpm for 30 seconds to obtain a first separate liquid containing a supernatant and a cell group. The supernatant was removed from the first separate liquid, liquid II pre-warmed to 37° C. in a thermostatic bath was then added to the remaining cell group little by little, and the mixture was stirred, transferred into a 50 mL medium bottle, and further stirred at 37° C. for 15 minutes to perform tissue digestion with trypsin.
(§4) Next, liquid IV was added to the medium bottle to deactivate the trypsin, and the mixture was centrifuged at 1,000 rpm for 30 seconds to obtain a second separate liquid containing a supernatant and a cell group. The supernatant was removed from the second separate liquid, and a small amount of liquid III was then added to the remaining cell group with a Pasteur pipette to disperse the cell group. Thereafter, the mixture was left standing for 15 minutes to obtain a third separate liquid containing a supernatant and a cell group, and the supernatant was taken into liquid V. To the cell group remaining in the third separate liquid, a small amount of liquid III was added to redisperse the cell group. Thereafter, the mixture was left standing for 5 to 10 minutes to obtain a fourth separate liquid containing a supernatant and a cell group, and the supernatant was taken into liquid V containing the supernatant of the third separate liquid.
(§5) Liquid V containing the supernatant of the third separate liquid and the supernatant of the fourth separate liquid was centrifuged at 1,000 rpm for 5 minutes to obtain a fifth separate liquid containing a supernatant and a cell group. The supernatant was removed from the fifth separate liquid, a basal medium (BME: Basal Medium Eagle manufactured by Sigma-Aldrich Co. LLC) was then added to the remaining cell group, and the mixture was stirred to obtain a mixed liquid containing cerebellar granule cells (CGC) and BME. Thereafter, the mixed liquid was stained with a trypan Blue solution with a concentration of 0.4 mass %, and the number of the stained cells and the viability thereof were measured.

[2] = system: cerebellar granule cells (CGC); conditions: Wistar, rat, 6 days
Protocol: as §1, §2, §3, §4, §5

rats = conditions: when transferred into the cerebrospinal fluid, NPL 2; cited from earlier work
[3] = system: cerebellar granule cells (CGC); conditions: Wistar, rat, 6 days; remark: listed apart in the source
Protocol: Next, K+5 mM serum (+) BME was added to the mixed liquid in such a manner that the cell density of living cells was 1.2×10^5 cells/mL, and the mixture was suspended to obtain a culture sample. The culture sample was seeded at 0.766 mL per well in a 12-well plate pre-coated with poly-L-lysin (PLL) with a concentration of 50 μg/mL, and was cultured in an incubator environment of CO2 with a concentration of 5 vol % at 37° C.
On day 1 after the start of culture, to each well was added cytosine β-D-arabinofuranoside (AraC) to a final concentration of 10 μM for the purpose of suppressing growth of non-neuronal cells while maintaining only CGC. Further, in the below-described control sample, KCl was added to a final concentration of 25 mM. In other samples (samples containing the peptides or amino acids shown in Tables 5 to 7 below), KCl was added with an adjustment made to a final concentration of 15 mM.
Specifically, the percent ratio of the number of living cells in each sample to the number of living cells in the control sample having a KCl concentration of 25 mM was determined, and subjected to statistical processing to evaluate significance of the differentiation promoting action on CGC. […]

[4] = system: PC12 cells derived from a rat adrenal pheochromocytoma; conditions: PTL 2; cited from earlier work

Row | Molecule | Viability (%) ([2]; 0.1 μM) | Viability (%) ([2]; 1 μM) | Viability (%) ([2]; 10 μM) | Viability (%) ([2]; 100 μM) | Viability (%) ([2]; 1000 μM) | also measured
1 | N[C@@H](CCC(=O)N[C@@H](CS)C(=O)NCC(=O)O)C(=O)O [Glutathione, glutathione] | – | – | – | – | – | Viability (%) ([1]; 0.01 μM added days 1 and 4): 73.9%; Viability (%) ([1]; 0.1 μM added days 1 and 4): 63.5%; Viability (%) ([1]; 1 μM added days 1 and 4): 63.5%; Viability (%) ([1]; 10 μM added days 1 and 4): 63.6%; Viability (%) ([1]; 100 μM added days 1 and 4): 60.0%; Viability (%) ([1]; 1000 μM added days 1 and 4): 67.1%
2 | NCC(=O)N1CCC[C@H]1C(=O)N1C[C@H](O)C[C@H]1C(=O)O [GPO] (H-Gly-Pro-[Hyp]-OH) | – | – | – | – | – | Viability (%) ([1]; 0.1 μM added days 1 and 4): 56.3%; Viability (%) ([1]; 1 μM added days 1 and 4): 58.4%; Viability (%) ([1]; 10 μM added days 1 and 4): 59.0%; Viability (%) ([1]; 100 μM added days 1 and 4): 55.8%; Viability (%) ([1]; 1000 μM added days 1 and 4): 61.5%
3 | N[C@@H](CCC(=O)O)C(=O)N1C[C@H](O)C[C@H]1C(=O)O [EO] (H-Glu-[Hyp]-OH; N-terminus and C-terminus assumed) | 52.9% | 54.8% | 86.8% | 81.2% | 86.7% | –
4 | O=C(O)[C@@H]1C[C@@H](O)CN1C(=O)[C@@H]1CCCN1 [PO, Pro-Hyp] (H-Pro-[Hyp]-OH; N-terminus and C-terminus assumed) | 52.6% | 51.8% | 76.3% | 72.9% | 74.0% | antidepressant effect (rats): exhibited an antidepressant effect
5 | N[C@@H](CCC(=O)O)C(=O)N1C[C@H](O)C[C@H]1C(=O)NCC(=O)O [EOG, Glu-Hyp-Gly] (H-Glu-[Hyp]-Gly-OH; N-terminus and C-terminus assumed) | 69.9% | – | – | 74.4% | 77.7% | Viability (%) ([3]; 3 μM): 67.2%; Viability (%) ([3]; 7 μM): 72.7%
6 | IGF-1: listed in Table 5 only, not explained in the text | – | – | – | – | – | Viability (%) ([1]; 100 ng/mL added days 1 and 4): 67.1%
7 | O=C1NCC(=O)N2CCC[C@@H]12 [C-GP] | – | – | 51.2% | 46.4% | 53.3% | –
8 | CN[C@H](CC(=O)O)C(=O)O [NMDA, N-methyl-D-aspartic acid] | – | – | – | – | – | viability at 100 µM ([1]; Rattus norvegicus, 168 h): 93.4%
9 | Gly-Pro-Ala | – | – | – | – | – | neurogenesis promoting action [4]: has a neurogenesis promoting action
10 | O=C(O)CNC(=O)[C@@H]1C[C@@H](O)CN1 [OG] (H-[Hyp]-Gly-OH) | – | – | – | – | – | Viability (%) ([1]; 0.1 μM added days 1 and 4): 54.5%; Viability (%) ([1]; 1 μM added days 1 and 4): 61.8%; Viability (%) ([1]; 10 μM added days 1 and 4): 77.6%; Viability (%) ([1]; 100 μM added days 1 and 4): 72.8%; Viability (%) ([1]; 1000 μM added days 1 and 4): 71.1%
11 | NCC(=O)N1CCC[C@H]1C(=O)O [GP] (H-Gly-Pro-OH; N-terminus and C-terminus assumed) | – | – | – | – | – | Viability (%) ([1]; 0.1 μM added days 1 and 4): 48.4%; Viability (%) ([1]; 1 μM added days 1 and 4): 61.2%; Viability (%) ([1]; 10 μM added days 1 and 4): 65.7%; Viability (%) ([1]; 100 μM added days 1 and 4): 63.4%; Viability (%) ([1]; 1000 μM added days 1 and 4): 72.2%
12 | O=C1NCC(=O)N2C[C@H](O)C[C@@H]12 [C-OG] | 57.8% | 63.2% | 54.2% | 50.1% | 62.7% | –
13 | C[C@H](N)C(=O)N1C[C@H](O)C[C@H]1C(=O)O [AO] (H-Ala-[Hyp]-OH; N-terminus and C-terminus assumed) | 55.1% | 57.0% | 66.1% | 64.7% | 65.9% | –
14 | O=C1N[C@@H](Cc2cnc[nH]2)C(=O)N2CCC[C@@H]12 [C-HP] | – | – | 65.1% | 63.9% | 69.2% | –
15 | N[C@@H](CCC(=O)O)C(=O)O [Glutamic acid, glutamic acid] | – | – | – | – | – | viability at 10 µM ([1]; Rattus norvegicus, 168 h): 58.1%; viability at 100 µM ([1]; Rattus norvegicus, 168 h): 52.4%; viability at 1000 µM ([1]; Rattus norvegicus, 168 h): 42.4%
16 | O=C(O)CC[C@@H]1NC(=O)[C@@H]2C[C@@H](O)CN2C1=O [C-EO] | 51.3% | 52.0% | 64.8% | 65.0% | 69.3% | –
17 | O=C1[C@@H]2C[C@@H](O)CN2C(=O)[C@@H]2CCCN12 [C-PO] | 55.7% | 58.4% | 73.2% | 70.6% | 68.4% | –
18 | BDNF: brain-derived neurotrophic factor, Reference Example | – | – | – | – | – | Viability (%) ([1]; 100 ng/mL added days 1 and 4): 76.6%

Source: patent publication US12569532B2, “Brain function regulating agent, and food or beverage product containing same” (NITTA GELATIN INC., priority 2019, dated 2026)
